In US10738056B2 (Aduro BioTech, Inc., priority 2017, dated 2020):
pIC50: −log10 of the molar value. Read-outs that look alike come from different tables or passages of the source.

Key:
[1] = biological target: Human cGAS amino acids 155-522 (Homo sapiens (Human), UniProt Q8N884); test: cGAS biochemical activity assay (ATP remaining, Kinase-Glo Max luminescence); details: human cGAS 155-522, ATP remaining (Kinase-Glo Max); read-out: cGAS IC50
[2] = tested on: cGAS/STING pathway in THP1 cells; test: THP1 cell-based cGAS/STING pathway activity assay (IRF-3-linked luciferase reporter)
Procedure, shortened: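 THP1 cells carrying an IRF-3-driven luciferase reporter were read across a range of compound concentrations, and IC50 values were derived from these concentration responses; the assay upper limit was 100 μM.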

Chain of Human cGAS amino acids 155-522 (Q8N884 157-522): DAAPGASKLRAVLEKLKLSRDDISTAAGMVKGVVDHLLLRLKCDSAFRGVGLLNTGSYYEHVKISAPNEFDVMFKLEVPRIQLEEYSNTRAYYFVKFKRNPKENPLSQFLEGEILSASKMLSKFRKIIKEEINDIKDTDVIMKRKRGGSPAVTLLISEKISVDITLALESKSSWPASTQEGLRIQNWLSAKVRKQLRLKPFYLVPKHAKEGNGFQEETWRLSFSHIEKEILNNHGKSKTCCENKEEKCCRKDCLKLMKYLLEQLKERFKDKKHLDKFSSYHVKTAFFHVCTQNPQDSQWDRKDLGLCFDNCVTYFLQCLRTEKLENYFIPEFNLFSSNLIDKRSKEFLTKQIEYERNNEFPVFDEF

Row | pIC50 [1] | pIC50 ([2]; Homo sapiens, THP-1) | pIC50 ([2]; read-out: THP-1 IC50) | SMILES
1 | > 4.70 | > 4.70 | – | COCCOCc1[nH]c2c(-c3ccccc3)c(C#N)nn2c(=O)c1-c1nc2c(OC)cccc2o1 [Compound C1243, 6-(4-methoxybenzo[d]oxazol-2-yl)-5-((2-methoxyethoxy)methyl)-7-oxo-3-phenyl-4,7-dihydropyrazolo[1,5-a]pyrimidine-2-carbonitrile]
2 | > 4.70 | < 4.00 | – | Cc1[nH]c2c(-c3ccccc3)c(C(F)(F)F)nn2c(=O)c1-c1nnc([C@@H]2CCCOC2)o1 [Compound D1026, (R)-5-methyl-3-phenyl-6-(5-(tetrahydro-2H-pyran-3-yl)-1,3,4-oxadiazol-2-yl)-2-(trifluoromethyl)pyrazolo[1,5-a]pyrimidin-7(4H)-one]
3 | > 4.70 | 4.00 to 4.70 | – | Cc1[nH]c2c(-c3ccccc3)c(C(F)(F)F)nn2c(=O)c1C(=O)Nc1ccn(C(C)C)n1 [Compound A1065, N-(1-isopropyl-1H-pyrazol-3-yl)-5-methyl-7-oxo-3-phenyl-2-(trifluoromethyl)-4,7-dihydropyrazolo[1,5-a]pyrimidine-6-carboxamide]
4 | > 4.70 | > 4.70 | – | COc1cc(N(C)C)cc2oc(-c3c(C)[nH]c4c(-c5ccccc5)c(C(F)(F)F)nn4c3=O)nc12 [Compound C1162, 6-(6-(dimethylamino)-4-methoxybenzo[d]oxazol-2-yl)-5-methyl-3-phenyl-2-(trifluoromethyl)pyrazolo[1,5-a]pyrimidin-7(4H)-one]
5 | > 4.70 | < 4.00 | – | COCc1nnc(-c2c(C)[nH]c3c(-c4ccccc4)c(C(F)(F)F)nn3c2=O)o1 [Compound D1019, 6-(5-(methoxymethyl)-1,3,4-oxadiazol-2-yl)-5-methyl-3-phenyl-2-(trifluoromethyl)pyrazolo[1,5-a]pyrimidin-7(4H)-one]
6 | 3.60 to 4.70 | < 4.00 | – | Cc1[nH]c2c(-c3ccccc3)c(C(F)(F)F)nn2c(=O)c1C(=O)NS(C)(=O)=O [Compound A1117, 5-methyl-N-(methylsulfonyl)-7-oxo-3-phenyl-2-(trifluoromethyl)-4,7-dihydropyrazolo[1,5-a]pyrimidine-6-carboxamide]
7 | > 4.70 | – | < 4.00 | CO[C@@H]1CCCC(c2nnc(-c3c(C)[nH]c4c(-c5ccccc5)c(C(F)(F)F)nn4c3=O)o2)C1 (stereo partly drawn) [D1021 Iso-2]
8 | 3.60 to 4.70 | < 4.00 | – | CC(=O)N1CCOCC1c1nnc(-c2c(C)[nH]c3c(-c4ccccc4)c(C(F)(F)F)nn3c2=O)o1 (stereo not drawn) [Compound D1050, 6-(5-(4-acetylmorpholin-3-yl)-1,3,4-oxadiazol-2-yl)-5-methyl-3-phenyl-2-(trifluoromethyl)pyrazolo[1,5-a]pyrimidin-7(4H)-one]
9 | > 4.70 | < 4.00 | – | COc1ccccc1S(=O)(=O)NC(=O)c1c(C)[nH]c2c(-c3ccccc3)c(C(F)(F)F)nn2c1=O [Compound A1121, N-((2-methoxyphenyl)sulfonyl)-5-methyl-7-oxo-3-phenyl-2-(trifluoromethyl)-4,7-dihydropyrazolo[1,5-a]pyrimidine-6-carboxamide]
10 | > 4.70 | < 4.00 | – | Cc1[nH]c2c(-c3ccccc3)c(C(F)(F)F)nn2c(=O)c1-c1nnc(N2CCCC2)o1 [Compound D1014, 5-methyl-3-phenyl-6-(5-(pyrrolidin-1-yl)-1,3,4-oxadiazol-2-yl)-2-(trifluoromethyl)pyrazolo[1,5-a]pyrimidin-7(4H)-one]
11 | > 4.70 | < 4.00 | – | COc1cccc2oc(-c3c(-c4cnn(C)c4)[nH]c4c(-c5ccccc5)c(C(F)(F)F)nn4c3=O)nc12 [Compound C1255, 6-(4-methoxybenzo[d]oxazol-2-yl)-5-(1-methyl-1H-pyrazol-4-yl)-3-phenyl-2-(trifluoromethyl)pyrazolo[1,5-a]pyrimidin-7(4H)-one]
12 | > 4.70 | < 4.00 | – | Cc1[nH]c2c(-c3ccccc3)c(C(F)(F)F)nn2c(=O)c1C(=O)NS(=O)(=O)c1ccccn1 [Compound A1120, 5-methyl-7-oxo-3-phenyl-N-(pyridin-2-ylsulfonyl)-2-(trifluoromethyl)-4,7-dihydropyrazolo[1,5-a]pyrimidine-6-carboxamide]
13 | > 4.70 | < 4.00 | – | COc1cc(NC(=O)c2c(C)[nH]c3c(-c4ccccc4)c(C(F)(F)F)nn3c2=O)cc(OC)c1 [Compound A1067, N-(3,5-dimethoxyphenyl)-5-methyl-7-oxo-3-phenyl-2-(trifluoromethyl)-4,7-dihydropyrazolo[1,5-a]pyrimidine-6-carboxamide]
14 | > 4.70 | 4.00 to 4.70 | – | Cc1[nH]c2c(-c3ccccc3)c(C(F)(F)F)nn2c(=O)c1C(=O)Nc1ccn(C)n1 [Compound A1029, 5-methyl-N-(1-methyl-1H-pyrazol-3-yl)-7-oxo-3-phenyl-2-(trifluoromethyl)-4,7-dihydropyrazolo[1,5-a]pyrimidine-6-carboxamide]
15 | > 4.70 | < 4.00 | – | Cc1[nH]c2c(-c3ccccc3)c(C(F)(F)F)nn2c(=O)c1C1=NC(C(=O)O)[C@H](C)O1 (stereo partly drawn) [Compound C1216, (5S)-5-methyl-2-(5-methyl-7-oxo-3-phenyl-2-(trifluoromethyl)-4,7-dihydropyrazolo[1,5-a]pyrimidin-6-yl)-4,5-dihydrooxazole-4-carboxylic acid]
16 | > 4.70 | < 4.00 | – | Cc1[nH]c2c(-c3ccccc3)c(C(F)(F)F)nn2c(=O)c1C(=O)Nc1ccccc1S(C)(=O)=O [Compound A1083, 5-methyl-N-(2-(methylsulfonyl)phenyl)-7-oxo-3-phenyl-2-(trifluoromethyl)-4,7-dihydropyrazolo[1,5-a]pyrimidine-6-carboxamide]
17 | 3.60 to 4.70 | 4.00 to 4.70 | – | COc1ccccc1NC(=O)Cc1c(C)[nH]c2c(-c3ccccc3)c(C(F)(F)F)nn2c1=O [Compound B1010, N-(2-methoxyphenyl)-2-(5-methyl-7-oxo-3-phenyl-2-(trifluoromethyl)-4,7-dihydropyrazolo[1,5-a]pyrimidin-6-yl)acetamide]
18 | > 4.70 | 4.00 to 4.70 | – | Cc1[nH]c2c(-c3ccccc3)c(C(F)(F)F)nn2c(=O)c1C(=O)Nc1nccs1 [Compound A1028, 5-methyl-7-oxo-3-phenyl-N-(thiazol-2-yl)-2-(trifluoromethyl)-4,7-dihydropyrazolo[1,5-a]pyrimidine-6-carboxamide]
19 | > 4.70 | > 4.70 | – | Cc1[nH]c2c(-c3ccccc3)c(C(F)(F)F)nn2c(=O)c1C(=O)Nc1cccc2c1OC(F)(F)O2 [Compound A1062, N-(2,2-difluorobenzo[d][1,3]dioxol-4-yl)-5-methyl-7-oxo-3-phenyl-2-(trifluoromethyl)-4,7-dihydropyrazolo[1,5-a]pyrimidine-6-carboxamide]
20 | > 4.70 | < 4.00 | – | Cc1[nH]c2c(-c3ccccc3)c(C#N)nn2c(=O)c1-c1nc2ccc(N)cc2o1 [Compound C1193, 6-(6-aminobenzo[d]oxazol-2-yl)-5-methyl-7-oxo-3-phenyl-4,7-dihydropyrazolo[1,5-a]pyrimidine-2-carbonitrile]
21 | > 4.70 | 4.00 to 4.70 | – | Cc1[nH]c2c(-c3ccccc3)c(C#N)nn2c(=O)c1-c1nc2c(N)cccc2o1 [Compound C1223, 6-(4-aminobenzo[d]oxazol-2-yl)-5-methyl-7-oxo-3-phenyl-4,7-dihydropyrazolo[1,5-a]pyrimidine-2-carbonitrile]
